{
  "source": "ChEMBL document CHEMBL3991601",
  "about": "“The target landscape of clinical kinase drugs” (Science, 2017)",
  "note": "Activity calls are given as the source filed them. Further: in the data inactive means no Kd found up to 30 µM.",
  "data": [
    {"biological_target": "Chromodomain-helicase-DNA-binding protein 4 (Homo sapiens, UniProt Q14839)", "sequence (Q14839 whole entry)": "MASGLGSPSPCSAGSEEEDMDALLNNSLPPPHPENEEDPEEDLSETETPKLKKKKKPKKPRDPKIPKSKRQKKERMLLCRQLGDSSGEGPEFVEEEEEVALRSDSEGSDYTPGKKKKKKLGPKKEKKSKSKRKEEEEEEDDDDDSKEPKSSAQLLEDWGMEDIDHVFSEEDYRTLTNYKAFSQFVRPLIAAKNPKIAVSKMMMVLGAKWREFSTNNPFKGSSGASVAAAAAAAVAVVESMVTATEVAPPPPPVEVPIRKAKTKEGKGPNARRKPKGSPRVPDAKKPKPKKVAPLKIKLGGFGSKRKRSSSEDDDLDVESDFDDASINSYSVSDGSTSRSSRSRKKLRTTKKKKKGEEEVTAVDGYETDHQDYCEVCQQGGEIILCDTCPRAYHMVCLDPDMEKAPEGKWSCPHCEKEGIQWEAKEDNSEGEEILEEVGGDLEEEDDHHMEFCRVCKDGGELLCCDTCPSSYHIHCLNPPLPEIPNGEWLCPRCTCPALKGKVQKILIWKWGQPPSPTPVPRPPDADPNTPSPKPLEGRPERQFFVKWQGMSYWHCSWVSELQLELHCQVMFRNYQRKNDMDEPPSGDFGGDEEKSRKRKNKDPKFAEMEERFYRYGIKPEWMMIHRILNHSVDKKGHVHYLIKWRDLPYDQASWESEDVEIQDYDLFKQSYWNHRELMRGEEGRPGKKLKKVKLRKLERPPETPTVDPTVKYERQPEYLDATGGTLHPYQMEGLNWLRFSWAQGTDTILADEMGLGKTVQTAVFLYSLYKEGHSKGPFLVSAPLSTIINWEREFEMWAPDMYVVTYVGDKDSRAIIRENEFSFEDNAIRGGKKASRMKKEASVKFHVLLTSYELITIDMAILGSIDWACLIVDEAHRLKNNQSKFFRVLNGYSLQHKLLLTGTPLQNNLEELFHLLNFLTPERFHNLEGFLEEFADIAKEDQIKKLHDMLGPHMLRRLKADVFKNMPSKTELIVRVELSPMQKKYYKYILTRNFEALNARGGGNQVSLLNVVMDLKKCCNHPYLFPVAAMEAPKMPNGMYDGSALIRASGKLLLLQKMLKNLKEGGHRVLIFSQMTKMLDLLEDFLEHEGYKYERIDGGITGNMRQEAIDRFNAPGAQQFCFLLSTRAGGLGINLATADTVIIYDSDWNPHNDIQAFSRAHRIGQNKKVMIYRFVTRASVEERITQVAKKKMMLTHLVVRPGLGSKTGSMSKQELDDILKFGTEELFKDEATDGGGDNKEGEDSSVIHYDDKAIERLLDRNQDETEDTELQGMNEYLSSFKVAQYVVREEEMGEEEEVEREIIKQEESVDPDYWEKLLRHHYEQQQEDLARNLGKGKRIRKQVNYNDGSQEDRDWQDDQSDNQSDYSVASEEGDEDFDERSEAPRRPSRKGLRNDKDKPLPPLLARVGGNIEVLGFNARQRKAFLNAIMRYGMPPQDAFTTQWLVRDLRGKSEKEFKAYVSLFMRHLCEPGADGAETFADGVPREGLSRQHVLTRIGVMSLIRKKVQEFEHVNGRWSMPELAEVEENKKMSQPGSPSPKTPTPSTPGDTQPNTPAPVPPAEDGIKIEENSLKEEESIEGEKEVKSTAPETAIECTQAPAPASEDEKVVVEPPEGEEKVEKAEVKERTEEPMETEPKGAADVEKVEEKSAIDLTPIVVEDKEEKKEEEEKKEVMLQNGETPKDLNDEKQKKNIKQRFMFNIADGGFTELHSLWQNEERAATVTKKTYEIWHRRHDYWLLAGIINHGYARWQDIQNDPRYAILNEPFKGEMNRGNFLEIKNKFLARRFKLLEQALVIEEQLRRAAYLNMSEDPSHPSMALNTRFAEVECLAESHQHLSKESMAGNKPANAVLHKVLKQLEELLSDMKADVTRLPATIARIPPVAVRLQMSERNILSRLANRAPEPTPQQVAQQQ", "values": [
      {"compound": "Cc1nc(N)sc1-c1ccnc(Nc2ccc(N3CCOCC3)cc2)n1", "note": "[CYC-116]", "Kd": "> 30 µM (inactive)"},
      {"compound": "CN1CCN(c2ccc3nc(-c4c(N)c5c(F)cccc5[nH]c4=O)[nH]c3c2)CC1", "note": "[DOVITINIB]", "Kd": "> 30 µM (inactive)"},
      {"compound": "Cc1cc(Nc2cc(N3CCN(C)CC3)nc(/C=C/c3ccccc3)n2)n[nH]1", "note": "[ENMD-2076]", "Kd": "> 30 µM (inactive)"}
    ]},
    {"biological_target": "Protein kinase C alpha type (Homo sapiens, UniProt P17252)", "values": [
      {"compound": "Cc1nc(N)sc1-c1ccnc(Nc2ccc(N3CCOCC3)cc2)n1", "note": "[CYC-116]", "Kd": "> 30 µM (inactive)"},
      {"compound": "CN1CCN(c2ccc3nc(-c4c(N)c5c(F)cccc5[nH]c4=O)[nH]c3c2)CC1", "note": "[DOVITINIB]", "Kd": "> 30 µM (inactive)"},
      {"compound": "Cc1cc(Nc2cc(N3CCN(C)CC3)nc(/C=C/c3ccccc3)n2)n[nH]1", "note": "[ENMD-2076]", "Kd": "> 30 µM (inactive)"}
    ]},
    {"biological_target": "Myosin-14 (Homo sapiens, UniProt Q7Z406)", "sequence (Q7Z406 whole entry)": "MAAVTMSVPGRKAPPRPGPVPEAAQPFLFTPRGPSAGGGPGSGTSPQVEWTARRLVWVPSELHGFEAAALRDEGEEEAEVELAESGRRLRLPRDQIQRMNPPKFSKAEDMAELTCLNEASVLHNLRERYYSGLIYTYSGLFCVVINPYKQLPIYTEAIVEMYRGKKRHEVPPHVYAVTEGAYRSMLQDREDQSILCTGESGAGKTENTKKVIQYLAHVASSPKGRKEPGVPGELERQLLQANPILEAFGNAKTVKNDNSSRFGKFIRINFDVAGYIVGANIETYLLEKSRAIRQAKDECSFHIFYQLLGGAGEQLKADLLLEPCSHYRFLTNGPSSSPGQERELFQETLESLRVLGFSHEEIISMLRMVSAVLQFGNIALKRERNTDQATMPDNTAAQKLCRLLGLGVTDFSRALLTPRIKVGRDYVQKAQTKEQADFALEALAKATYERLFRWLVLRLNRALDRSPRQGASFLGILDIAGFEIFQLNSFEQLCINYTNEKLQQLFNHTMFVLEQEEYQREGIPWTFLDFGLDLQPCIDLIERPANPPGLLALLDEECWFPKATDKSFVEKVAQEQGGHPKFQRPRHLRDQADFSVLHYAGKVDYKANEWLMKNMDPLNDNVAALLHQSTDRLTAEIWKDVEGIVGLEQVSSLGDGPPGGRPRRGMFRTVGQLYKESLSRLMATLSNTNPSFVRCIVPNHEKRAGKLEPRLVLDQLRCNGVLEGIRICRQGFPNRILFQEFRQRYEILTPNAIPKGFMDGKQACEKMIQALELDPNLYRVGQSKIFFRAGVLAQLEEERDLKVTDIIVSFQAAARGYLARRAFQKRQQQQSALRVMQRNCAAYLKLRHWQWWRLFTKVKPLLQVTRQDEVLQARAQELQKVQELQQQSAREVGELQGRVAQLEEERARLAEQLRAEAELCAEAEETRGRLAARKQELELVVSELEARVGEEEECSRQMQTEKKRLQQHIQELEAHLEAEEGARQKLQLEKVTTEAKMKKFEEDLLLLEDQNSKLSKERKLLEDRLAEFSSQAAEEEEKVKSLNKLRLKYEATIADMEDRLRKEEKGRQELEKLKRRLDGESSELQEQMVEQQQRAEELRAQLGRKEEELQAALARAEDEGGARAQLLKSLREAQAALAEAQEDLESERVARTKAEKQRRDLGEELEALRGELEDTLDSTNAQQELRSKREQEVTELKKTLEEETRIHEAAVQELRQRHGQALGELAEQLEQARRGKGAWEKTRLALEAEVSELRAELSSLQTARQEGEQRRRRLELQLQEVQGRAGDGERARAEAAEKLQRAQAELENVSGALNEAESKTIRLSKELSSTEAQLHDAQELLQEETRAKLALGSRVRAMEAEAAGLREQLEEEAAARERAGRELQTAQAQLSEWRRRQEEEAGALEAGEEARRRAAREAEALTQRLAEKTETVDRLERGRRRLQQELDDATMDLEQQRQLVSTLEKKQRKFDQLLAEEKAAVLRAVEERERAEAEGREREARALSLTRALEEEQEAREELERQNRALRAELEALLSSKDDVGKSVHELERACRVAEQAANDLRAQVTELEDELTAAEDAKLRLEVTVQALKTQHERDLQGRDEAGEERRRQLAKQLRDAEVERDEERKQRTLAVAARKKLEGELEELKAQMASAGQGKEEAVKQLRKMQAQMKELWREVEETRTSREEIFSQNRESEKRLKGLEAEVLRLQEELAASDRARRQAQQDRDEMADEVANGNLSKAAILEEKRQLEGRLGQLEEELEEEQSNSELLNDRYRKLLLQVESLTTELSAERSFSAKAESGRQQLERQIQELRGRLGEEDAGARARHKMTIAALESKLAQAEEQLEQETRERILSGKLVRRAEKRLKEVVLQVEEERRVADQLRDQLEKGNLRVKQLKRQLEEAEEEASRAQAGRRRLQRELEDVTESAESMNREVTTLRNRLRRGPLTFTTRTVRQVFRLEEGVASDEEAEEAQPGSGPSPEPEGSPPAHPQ", "values": [
      {"compound": "Cc1nc(N)sc1-c1ccnc(Nc2ccc(N3CCOCC3)cc2)n1", "note": "[CYC-116]", "Kd": "> 30 µM (inactive)"},
      {"compound": "CN1CCN(c2ccc3nc(-c4c(N)c5c(F)cccc5[nH]c4=O)[nH]c3c2)CC1", "note": "[DOVITINIB]", "Kd": "> 30 µM (inactive)"},
      {"compound": "Cc1cc(Nc2cc(N3CCN(C)CC3)nc(/C=C/c3ccccc3)n2)n[nH]1", "note": "[ENMD-2076]", "Kd": "> 30 µM (inactive)"}
    ]},
    {"biological_target": "Inosine-5'-monophosphate dehydrogenase 2 (Homo sapiens, UniProt P12268)", "values": [
      {"compound": "Cc1nc(N)sc1-c1ccnc(Nc2ccc(N3CCOCC3)cc2)n1", "note": "[CYC-116]", "Kd": "> 30 µM (inactive)"},
      {"compound": "CN1CCN(c2ccc3nc(-c4c(N)c5c(F)cccc5[nH]c4=O)[nH]c3c2)CC1", "note": "[DOVITINIB]", "Kd": "> 30 µM (inactive)"},
      {"compound": "Cc1cc(Nc2cc(N3CCN(C)CC3)nc(/C=C/c3ccccc3)n2)n[nH]1", "note": "[ENMD-2076]", "Kd": "> 30 µM (inactive)"}
    ]},
    {"biological_target": "Wee1-like protein kinase (Homo sapiens, UniProt P30291)", "values": [
      {"compound": "Cc1cc(Nc2cc(N3CCN(C)CC3)nc(/C=C/c3ccccc3)n2)n[nH]1", "note": "[ENMD-2076]", "Kd": "> 30 µM (inactive)"}
    ]},
    {"biological_target": "T1, Serine/threonine-protein kinase STK11 (Homo sapiens, UniProt Q15831)", "T1 sequence (Q15831 whole entry)": "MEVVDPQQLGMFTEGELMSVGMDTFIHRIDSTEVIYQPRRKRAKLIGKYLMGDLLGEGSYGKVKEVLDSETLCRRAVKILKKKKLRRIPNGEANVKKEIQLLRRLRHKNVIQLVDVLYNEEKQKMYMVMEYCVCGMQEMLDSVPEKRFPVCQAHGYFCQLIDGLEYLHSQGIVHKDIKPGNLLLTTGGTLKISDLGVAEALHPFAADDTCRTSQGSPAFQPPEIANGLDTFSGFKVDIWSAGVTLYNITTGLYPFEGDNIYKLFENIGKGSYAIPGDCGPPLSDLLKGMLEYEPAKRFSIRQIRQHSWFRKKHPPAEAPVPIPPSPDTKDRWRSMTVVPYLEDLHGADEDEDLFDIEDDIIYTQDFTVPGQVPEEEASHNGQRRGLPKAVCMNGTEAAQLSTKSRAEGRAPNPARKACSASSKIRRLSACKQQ", "values": [
      {"compound": "Cc1nc(N)sc1-c1ccnc(Nc2ccc(N3CCOCC3)cc2)n1", "note": "[CYC-116]", "Kd": "> 30 µM (inactive)"}
    ]},
    {"biological_target": "T2, Phenylalanine--tRNA ligase beta subunit (Homo sapiens, UniProt Q9NSD9)", "T2 sequence (Q9NSD9 whole entry)": "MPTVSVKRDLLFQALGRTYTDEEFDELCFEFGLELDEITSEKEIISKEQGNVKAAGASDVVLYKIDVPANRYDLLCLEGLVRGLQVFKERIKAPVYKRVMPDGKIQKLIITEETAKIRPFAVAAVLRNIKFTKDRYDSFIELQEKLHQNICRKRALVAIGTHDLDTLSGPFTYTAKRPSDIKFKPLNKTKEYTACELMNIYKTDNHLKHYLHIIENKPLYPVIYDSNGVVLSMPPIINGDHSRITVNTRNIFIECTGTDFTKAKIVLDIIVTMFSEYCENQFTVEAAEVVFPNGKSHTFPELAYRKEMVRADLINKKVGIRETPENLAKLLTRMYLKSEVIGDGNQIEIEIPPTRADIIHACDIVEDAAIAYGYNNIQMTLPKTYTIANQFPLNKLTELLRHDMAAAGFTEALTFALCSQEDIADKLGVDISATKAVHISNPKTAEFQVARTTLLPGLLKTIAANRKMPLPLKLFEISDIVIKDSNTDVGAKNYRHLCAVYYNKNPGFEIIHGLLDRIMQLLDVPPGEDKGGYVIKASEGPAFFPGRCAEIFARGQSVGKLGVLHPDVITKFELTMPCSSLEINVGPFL", "values": [
      {"compound": "Cc1nc(N)sc1-c1ccnc(Nc2ccc(N3CCOCC3)cc2)n1", "note": "[CYC-116]", "Kd": "> 30 µM (inactive)"},
      {"compound": "CN1CCN(c2ccc3nc(-c4c(N)c5c(F)cccc5[nH]c4=O)[nH]c3c2)CC1", "note": "[DOVITINIB]", "Kd": "> 30 µM (inactive)"},
      {"compound": "Cc1cc(Nc2cc(N3CCN(C)CC3)nc(/C=C/c3ccccc3)n2)n[nH]1", "note": "[ENMD-2076]", "Kd": "> 30 µM (inactive)"}
    ]},
    {"biological_target": "Adenosine kinase (Homo sapiens, UniProt P55263)", "sequence (P55263 whole entry)": "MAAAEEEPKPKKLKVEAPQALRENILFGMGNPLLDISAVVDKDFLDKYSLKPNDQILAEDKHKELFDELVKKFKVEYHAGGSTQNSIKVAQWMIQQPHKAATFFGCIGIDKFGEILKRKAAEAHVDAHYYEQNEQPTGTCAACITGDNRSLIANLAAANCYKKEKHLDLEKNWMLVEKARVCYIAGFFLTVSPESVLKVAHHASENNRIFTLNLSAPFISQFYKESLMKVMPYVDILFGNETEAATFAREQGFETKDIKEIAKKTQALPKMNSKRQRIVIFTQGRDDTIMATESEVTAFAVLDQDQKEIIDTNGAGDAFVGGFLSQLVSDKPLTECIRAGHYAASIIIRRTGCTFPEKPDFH", "values": [
      {"compound": "Cc1nc(N)sc1-c1ccnc(Nc2ccc(N3CCOCC3)cc2)n1", "note": "[CYC-116]", "Kd": "> 30 µM (inactive)"},
      {"compound": "CN1CCN(c2ccc3nc(-c4c(N)c5c(F)cccc5[nH]c4=O)[nH]c3c2)CC1", "note": "[DOVITINIB]", "Kd": "> 30 µM (inactive)"},
      {"compound": "Cc1cc(Nc2cc(N3CCN(C)CC3)nc(/C=C/c3ccccc3)n2)n[nH]1", "note": "[ENMD-2076]", "Kd": "> 30 µM (inactive)"}
    ]},
    {"biological_target": "Putative heat shock protein HSP 90-beta 2 (Homo sapiens, UniProt Q58FF8)", "sequence (Q58FF8 whole entry)": "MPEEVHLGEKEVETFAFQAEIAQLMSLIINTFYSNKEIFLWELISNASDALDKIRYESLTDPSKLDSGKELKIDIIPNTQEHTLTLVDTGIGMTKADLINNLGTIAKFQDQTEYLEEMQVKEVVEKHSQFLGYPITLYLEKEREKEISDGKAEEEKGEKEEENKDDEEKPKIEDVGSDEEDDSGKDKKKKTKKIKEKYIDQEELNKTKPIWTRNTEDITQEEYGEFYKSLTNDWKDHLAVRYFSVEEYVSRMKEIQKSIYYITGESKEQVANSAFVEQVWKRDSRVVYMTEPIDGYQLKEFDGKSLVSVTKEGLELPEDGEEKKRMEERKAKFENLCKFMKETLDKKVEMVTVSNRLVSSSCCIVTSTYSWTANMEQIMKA", "values": [
      {"compound": "Cc1nc(N)sc1-c1ccnc(Nc2ccc(N3CCOCC3)cc2)n1", "note": "[CYC-116]", "Kd": "> 30 µM (inactive)"},
      {"compound": "CN1CCN(c2ccc3nc(-c4c(N)c5c(F)cccc5[nH]c4=O)[nH]c3c2)CC1", "note": "[DOVITINIB]", "Kd": "> 30 µM (inactive)"},
      {"compound": "Cc1cc(Nc2cc(N3CCN(C)CC3)nc(/C=C/c3ccccc3)n2)n[nH]1", "note": "[ENMD-2076]", "Kd": "> 30 µM (inactive)"}
    ]},
    {"biological_target": "26S proteasome regulatory subunit 6B (Homo sapiens, UniProt P43686)", "sequence (P43686 whole entry)": "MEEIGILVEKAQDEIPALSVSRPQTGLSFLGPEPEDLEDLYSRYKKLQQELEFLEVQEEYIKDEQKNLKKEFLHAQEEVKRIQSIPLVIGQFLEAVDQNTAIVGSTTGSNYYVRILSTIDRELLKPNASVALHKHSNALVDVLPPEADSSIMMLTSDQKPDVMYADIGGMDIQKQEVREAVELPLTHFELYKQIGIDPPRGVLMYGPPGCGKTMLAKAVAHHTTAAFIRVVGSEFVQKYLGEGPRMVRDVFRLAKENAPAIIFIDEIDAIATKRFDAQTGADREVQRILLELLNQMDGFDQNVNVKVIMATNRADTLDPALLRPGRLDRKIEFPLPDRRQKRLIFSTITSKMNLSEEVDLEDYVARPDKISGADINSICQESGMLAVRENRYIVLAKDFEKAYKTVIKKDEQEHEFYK", "values": [
      {"compound": "Cc1nc(N)sc1-c1ccnc(Nc2ccc(N3CCOCC3)cc2)n1", "note": "[CYC-116]", "Kd": "> 30 µM (inactive)"},
      {"compound": "CN1CCN(c2ccc3nc(-c4c(N)c5c(F)cccc5[nH]c4=O)[nH]c3c2)CC1", "note": "[DOVITINIB]", "Kd": "> 30 µM (inactive)"},
      {"compound": "Cc1cc(Nc2cc(N3CCN(C)CC3)nc(/C=C/c3ccccc3)n2)n[nH]1", "note": "[ENMD-2076]", "Kd": "> 30 µM (inactive)"}
    ]},
    {"biological_target": "T3, Tyrosine--tRNA ligase, cytoplasmic (Homo sapiens, UniProt P54577)", "T3 sequence (P54577 whole entry)": "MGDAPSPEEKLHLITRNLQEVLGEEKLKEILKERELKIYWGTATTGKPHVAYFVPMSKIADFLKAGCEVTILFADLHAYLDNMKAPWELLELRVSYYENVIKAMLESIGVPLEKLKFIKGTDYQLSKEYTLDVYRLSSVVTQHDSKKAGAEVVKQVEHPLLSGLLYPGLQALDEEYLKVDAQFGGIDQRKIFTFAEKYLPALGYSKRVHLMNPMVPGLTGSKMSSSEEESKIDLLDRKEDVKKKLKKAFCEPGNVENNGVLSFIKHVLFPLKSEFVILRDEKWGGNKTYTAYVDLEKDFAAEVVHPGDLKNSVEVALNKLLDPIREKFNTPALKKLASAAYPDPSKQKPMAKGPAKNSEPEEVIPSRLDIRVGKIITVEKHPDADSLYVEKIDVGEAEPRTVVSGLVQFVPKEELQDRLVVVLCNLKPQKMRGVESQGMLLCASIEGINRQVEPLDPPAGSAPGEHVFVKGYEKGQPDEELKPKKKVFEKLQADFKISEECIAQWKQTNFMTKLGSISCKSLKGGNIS", "values": [
      {"compound": "Cc1nc(N)sc1-c1ccnc(Nc2ccc(N3CCOCC3)cc2)n1", "note": "[CYC-116]", "Kd": "> 30 µM (inactive)"},
      {"compound": "CN1CCN(c2ccc3nc(-c4c(N)c5c(F)cccc5[nH]c4=O)[nH]c3c2)CC1", "note": "[DOVITINIB]", "Kd": "> 30 µM (inactive)"},
      {"compound": "Cc1cc(Nc2cc(N3CCN(C)CC3)nc(/C=C/c3ccccc3)n2)n[nH]1", "note": "[ENMD-2076]", "Kd": "> 30 µM (inactive)"}
    ]},
    {"biological_target": "T4, Electron transfer flavoprotein subunit beta (Homo sapiens, UniProt P38117)", "T4 sequence (P38117 whole entry)": "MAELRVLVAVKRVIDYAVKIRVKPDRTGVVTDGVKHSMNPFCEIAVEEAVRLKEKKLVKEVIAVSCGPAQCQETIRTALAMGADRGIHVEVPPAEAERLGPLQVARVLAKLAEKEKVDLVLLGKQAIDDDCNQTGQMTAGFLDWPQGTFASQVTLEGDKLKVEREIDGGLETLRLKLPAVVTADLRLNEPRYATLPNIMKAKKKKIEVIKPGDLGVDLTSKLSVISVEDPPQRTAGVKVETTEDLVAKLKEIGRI", "values": [
      {"compound": "Cc1nc(N)sc1-c1ccnc(Nc2ccc(N3CCOCC3)cc2)n1", "note": "[CYC-116]", "Kd": "> 30 µM (inactive)"},
      {"compound": "CN1CCN(c2ccc3nc(-c4c(N)c5c(F)cccc5[nH]c4=O)[nH]c3c2)CC1", "note": "[DOVITINIB]", "Kd": "> 30 µM (inactive)"},
      {"compound": "Cc1cc(Nc2cc(N3CCN(C)CC3)nc(/C=C/c3ccccc3)n2)n[nH]1", "note": "[ENMD-2076]", "Kd": "> 30 µM (inactive)"}
    ]},
    {"biological_target": "Mitogen-activated protein kinase kinase kinase 4 (Homo sapiens, UniProt Q9Y6R4)", "values": [
      {"compound": "Cc1nc(N)sc1-c1ccnc(Nc2ccc(N3CCOCC3)cc2)n1", "note": "[CYC-116]", "Kd": "> 30 µM (inactive)"},
      {"compound": "Cc1cc(Nc2cc(N3CCN(C)CC3)nc(/C=C/c3ccccc3)n2)n[nH]1", "note": "[ENMD-2076]", "Kd": "> 30 µM (inactive)"}
    ]}
  ]
}
